Experiment in all cases: relative viability (nuclei count vs DMSO), 5 days (fraction); higher = more cells survive
Compound in the experiment “Shikonin + Decitabine”: CC(C)=CC[C@@H](O)C1=CC(=O)c2c(O)ccc(O)c2C1=O [Shikonin] + Nc1ncn([C@H]2C[C@H](O)[C@@H](CO)O2)c(=O)n1 [Decitabine] (partner 2 µM)
The essentials:
(§1)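 Nuclei were stained with Hoechst during a one-step fixation (final 0.05% Triton X-100, 1% formaldehyde, 1 ug/ml Hoechst) carried out 5 days after dosing, then counted on 4× images. The cells, lung cancer lines in 1536-well plates, had been dosed by pin tool the day after seeding with one drug alone or a fixed anchor-drug dose plus five library-drug doses (not always all listed) in √10 steps. Relative viability is the nuclei count in treated wells divided by that in vehicle wells, and each value is the median of duplicate plates.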

Compound in experiment [1]: CC(C)N(CCCNC(=O)Nc1ccc(C(C)(C)C)cc1)C[C@H]1O[C@@H](n2ccc3c(N)ncnc32)[C@H](O)[C@@H]1O + C[C@@H](Oc1cc(-c2cnn(C3CCNCC3)c2)cnc1N)c1c(Cl)ccc(F)c1Cl [Crizotinib] (partner 1 µM)
In a few lines:
as §1

Compound in experiment [2]: CC(C)N(CCCNC(=O)Nc1ccc(C(C)(C)C)cc1)C[C@H]1O[C@@H](n2ccc3c(N)ncnc32)[C@H](O)[C@@H]1O + C[C@]1(O)C[C@@H](c2nc(-c3ccc4ccc(-c5ccccc5)nc4c3)c3c(N)nccn32)C1 [Linsitinib] (partner 1 µM)
The essentials: as §1

Compound in experiment [3]: CC(C)N(CCCNC(=O)Nc1ccc(C(C)(C)C)cc1)C[C@H]1O[C@@H](n2ccc3c(N)ncnc32)[C@H](O)[C@@H]1O + Cc1nc(NC(=O)N2CCC[C@H]2C(N)=O)sc1-c1ccnc(C(C)(C)C(F)(F)F)c1 [Alpelisib] (partner 2 µM)
In a few lines: as §1

As to UMC-11, the relative viability was 0.576 in the experiment with Shikonin + Decitabine (first compound 0.01 µM); 0.614 with Shikonin + Decitabine (first compound 0.1 µM); 0.665 with Shikonin + Decitabine (first compound 0.3162 µM); 0.74 with Shikonin + Decitabine (first compound 1 µM); 0.579 in experiment [1] (first compound 0.08 µM); 0.706 in experiment [1] (first compound 0.253 µM). Moreover, the relative viability in experiment [1] (first compound 0.8 µM) came out at 0.723; in experiment [1] (first compound 2.53 µM), 0.656; in experiment [1] (first compound 8 µM), 0.636; in experiment [2] (first compound 0.08 µM), 0.953; in experiment [2] (first compound 0.253 µM), 0.96; in experiment [2] (first compound 0.8 µM), 1.07. The relative viability in experiment [2] (first compound 2.53 µM) worked out at 1.02; in experiment [2] (first compound 8 µM), 0.889; in experiment [3] (first compound 0.08 µM), 0.957; in experiment [3] (first compound 0.253 µM), 0.891; in experiment [3] (first compound 0.8 µM), 1.09; in experiment [3] (first compound 2.53 µM) it was 0.958. The relative viability in experiment [3] (first compound 8 µM) was 0.964.

The values are drawn from the supplement of paper PMC10307832.
